# In US20070203025A1, “Defoliant” (priority 2006, published 2007):
# What was measured:
# [1] = system: Cotton plants of the cultivar "Carmen"; experiment: Leaf drop effect (defoliation) on cotton plants after spray application; format: in vivo; conditions: dose 35 g of a.i./ha, 1 l/ha Actirob B added, scale 0-100%
# Method: (§1) A water application rate of 300 l/ha was initially charged. The components herbicide and adjuvant were then added with stirring at the application rates and in the manner stated in table 1, such that a homogeneous spray liquor was formed. Here, the active ingredients were employed as suspension concentrates. The adjuvant used was ®Actirob B (Novance).
# (§2) Cotton seeds of the cultivar “Carmen” were sown at a depth of 1 cm and cultivated in a climatized chamber (16 h of light, temperature during the day: 26° C., at night: 20° C.) until they had reached the 8-10 leaf stage.
# The plants were treated on a laboratory spray track with spray liquors of thidiazuron and thidiazuron with combination partners. The water application rate for the spray application was 300 l/ha. […]
# 2 weeks after the application, the leaf drop effect was evaluated according to a scale from 0 to 100%: • 0% =no noticeable effect compared to untreated plants • 100% =all leaves have dropped.
# One week after the application, the leaf drop effect was evaluated according to a scale from 0 to 100%: • 0% =no noticeable effect compared to untreated plants • 100% =all leaves have dropped.
# One week after the application, the leaf drop effect was evaluated according to a scale from 0 to 100%: • 0%=no noticeable effect compared to untreated plants • 100%=all leaves have dropped.
# [2] = system: Cotton plants of the cultivar "Carmen"; experiment: Regrowth of cotton plants, by weighing the newly formed leaf material; format: in vivo; conditions: dose 35 g of a.i./ha, 1 l/ha Actirob B added, weight of newly formed leaf material
# Method: as §1, §2
# The plants were treated on a laboratory spray track with spray liquors of thidiazuron and thidiazuron with combination partners. The water application rate for the spray application was 300 l/ha. After the treatment, the plants were returned to the climatized chamber.
# 4 weeks after the application, the regrowth of the plants was assessed by weighing the newly formed leaf material.
compound,measurement,setting,value
"O=C(Nc1ccccc1)Nc1cnns1 [TDZ, thidiazuron]",Leaf drop [%] 2 weeks after application,"[1]; Table 1, 100% = all leaves have dropped",35%
same,Leaf drop [%] 2 weeks after application,[1]; Table 3,91%
same,Regrowth [g] 4 weeks after application,[2]; Table 1,3.3 g
same,Regrowth [g] 4 weeks after application,[2]; Table 3,2.4 g
